Experiments:
Assay type in all cases: in vivo
[1] = tested on: Culex pipiens pallens (common mosquito); test: Pesticidal test against Culex pipiens pallens, larvae in treated water (Test Example 7); details: 24 h, 0.7 ml of 500 ppm test liquid in 100 ml water (active ingredient 3.5 ppm), twenty final-instar larvae, after 1 days
Experimental: In 100 ml of ion-exchanged water, the test liquid had been prepared as described above, was added dropwise in an amount of 0.7 ml (the concentration of active ingredient was 3.5 ppm). Twenty final-instar larvae of Culex pipiens pallens (common mosquito) were set free in the solution. After 1 days, their survival was examined to determine the mortality.

[2] = tested on: Blattalla germanica (German cockroach); test: Pesticidal test against Blattalla germanica, treated filter paper with sucrose bait (Test Example 6); details: Blattella germanica, 144 h; active ingredient 500 ppm, 0.7 ml on filter paper; two male adults; after 6 days
Source text: Two male adults of Blattalla germanica (German cockroach) were set free in the polyethylene cup, which was then kept covered. After 6 days, their survival was examined to determine the mortality.

[3] = tested on: Musca domestics (house fly); test: Pesticidal test against Musca domestics, treated filter paper with sucrose bait (Test Example 5); details: active ingredient 500 ppm, 0.7 ml on filter paper, ten female adults, after 24 hours
Experimental: Ten female adults of Musca domestics (house fly) were set free in the polyethylene cup, which was then kept covered. After 24 hours, their survival was examined to determine the mortality.

[4] = tested on: Diabrotica undecimpunctata (southern corn rootworm); test: Pesticidal test against Diabrotica undecimpunctata, filter paper with corn seed and eggs (Test Example 4); details: active ingredient 50 ppm, 1 ml on filter paper, 30 to 50 eggs, 25° C.
Experimental: One germinated seed of corn and 30 to 50 eggs of Diabrotica undecimpunctata (southern corn rootworm) was placed on the filter paper in the polyethylene cup, which was then kept covered and left in a room at 25° C. On the 6th day after, the number of surviving larvae of Diabrotica undecimpunctata was examined.

SMILES | mortality at 3.5 µg/mL [1] [%] | mortality at 500 ppm [2] [%] | mortality at 500 ppm [3] [%] | number of surviving pests on the 6th day after [4]
N#Cc1ccc(CC(C#N)(C#N)CC2CC2(Cl)Cl)cc1 (stereo not drawn) [Compound 9, 2-(4-cyanobenzyl)-2-((2,2-dichlorocyclopropyl)methyl)malononitrile] | 100 |  |  | 
N#CC(C#N)(Cc1ccc(C(F)(F)F)cc1)CC1CC1 [Compound 6, 2-(cyclopropylmethyl)-2-(4-(trifluoromethyl)benzyl)malononitrile] | 100 | 100 | 100 | 
N#CC(C#N)(Cc1ccc(OC(F)(F)F)cc1)CC1CC1(Cl)Cl (stereo not drawn) [Compound 5, 2-((2,2-dichlorocyclopropyl)methyl)-2-(4-(trifluoromethoxy)benzyl)malononitrile] | 100 |  | 100 | 
N#CC(C#N)(Cc1ccc(Cl)cc1)CC1CC1 [Compound 1, 2-(4-chlorobenzyl)-2-(cyclopropylmethyl)malononitrile] | 100 | 100 |  | 0
N#CC(C#N)(Cc1ccc(C(F)(F)F)cc1)CC1CCC1 [Compound 7, 2-(cyclobutylmethyl)-2-(4-(trifluoromethyl)benzyl)malononitrile] | 100 | 100 | 100 | 
N#CC(C#N)(Cc1ccc(OC(F)(F)F)cc1)CC1CCC1 [Compound 3, 2-(cyclobutylmethyl)-2-(4-(trifluoromethoxy)benzyl)malononitrile] | 100 |  | 100 | 
N#CC(C#N)(Cc1ccc(C(F)(F)F)cc1)CC1CC1(Cl)Cl (stereo not drawn) [Compound 10, 2-((2,2-dichlorocyclopropyl)methyl)-2-(4-(trifluoromethyl)benzyl)malononitrile] | 100 | 100 | 100 | 
N#CC(C#N)(Cc1ccc(OC(F)(F)F)cc1)CC1CC1 [Compound 2, 2-(cyclopropylmethyl)-2-(4-(trifluoromethoxy)benzyl)malononitrile] | 100 | 100 | 100 | 0
N#CC(C#N)(Cc1ccc(SC(F)(F)F)cc1)CC1CCC1 [Compound 4, 2-(cyclobutylmethyl)-2-(4-(trifluoromethylthio)benzyl)malononitrile] | 100 | 100 | 100 | 

From patent US20040143007A1, “Malononitrile compounds and their use as pesticides” (priority 2001, published 2004)
